Patent US20120165304A1, “6,7,8,9-Tetrahydro-5H-1,4,7,10a-tetraaza-cyclohept[f]indene derivatives, pharmaceutical compositions containing these compounds, their use and processes for preparing them” (BOEHRINGER INGELHEIM INTERNATIONAL GMBH, priority 2008, published 2012)

Biological target: human 5-HT2C receptor (Homo sapiens, UniProt P28335, I156V/I160V/N158S)
Experiment: cell-based

Sequence of human 5-HT2C receptor (P28335 33-458 I156V/N158S/I160V limits assumed): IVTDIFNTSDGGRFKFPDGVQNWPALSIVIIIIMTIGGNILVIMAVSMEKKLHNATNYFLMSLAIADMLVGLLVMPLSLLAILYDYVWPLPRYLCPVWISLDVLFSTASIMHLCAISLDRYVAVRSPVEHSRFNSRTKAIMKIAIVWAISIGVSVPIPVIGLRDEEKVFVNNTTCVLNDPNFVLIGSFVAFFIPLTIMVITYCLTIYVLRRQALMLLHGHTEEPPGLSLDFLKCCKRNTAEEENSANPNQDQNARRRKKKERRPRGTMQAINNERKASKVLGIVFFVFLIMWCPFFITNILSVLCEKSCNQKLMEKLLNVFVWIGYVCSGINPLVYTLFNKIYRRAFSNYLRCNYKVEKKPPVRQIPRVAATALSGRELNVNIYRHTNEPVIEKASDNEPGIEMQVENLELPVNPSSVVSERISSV

SMILES	EC50
O=C(C1CN(c2c3c(nc4ccnn24)CCNCC3)C1)N1CC[C@H](c2ccccc2)C1 [Example 31.224]	0.045 µM
CCOc1ccccc1OC1CN(c2c3c(nc4ccnn24)CCNCC3)C1 [Example 35.37]	0.047 µM
O=C(C1CN(c2c3c(nc4ccnn24)CCNCC3)C1)N1CCN(Cc2ccc(F)cc2)CC1 [Example 37.23]	0.006 µM
Fc1cccc(OCC2CN(c3c4c(nc5ccnn35)CCNCC4)C2)c1 [Example 15.19]	0.021 µM
FC(F)(F)c1cccc(OC2CN(c3c4c(nc5ccnn35)CCNCC4)C2)n1 [Example 20.10]	0.181 µM
CN(Cc1ccc(C(F)(F)F)cc1)C(=O)C1CN(c2c3c(nc4ccnn24)CCNCC3)C1 [Example 31.87]	0.036 µM
CC(C)C1(O)CCN(C(=O)C2CN(c3c4c(nc5ccnn35)CCN(C)CC4)C2)CC1 [Example 36.26]	0.191 µM
CN(Cc1nccs1)C(=O)C1CN(c2c3c(nc4ccnn24)CCNCC3)C1 [Example 31.13]	0.099 µM
O=C(C1CC1)N1CCN(C(=O)C2CN(c3c4c(nc5ccnn35)CCNCC4)C2)CC1 [Example 37.56]	0.01 µM
CCCCN1CCN(C(=O)C2CN(c3c4c(nc5ccnn35)CCNCC4)C2)CC1=O [Example 37.51]	0.011 µM
CC1(C(=O)N2CCC3(CC2)OCc2ccccc23)CN(c2c3c(nc4ccnn24)CCNCC3)C1 [Example 32.5]	6.55 µM
CN(C)[C@H]1CC[C@H](NC(=O)C2CN(c3c4c(nc5ccnn35)CCNCC4)C2)CC1 [Example 37.98]	0.025 µM
Fc1ccc(OC2CN(c3c4c(nc5ccnn35)CCNCC4)C2)cc1 [Example 1.6]	0.023 µM
Cc1cnn2c(N3CC(C(=O)N4CCc5ccccc54)C3)c3c(nc12)CCNCC3 [Example 31.236]	0.031 µM
Cc1cnn2c(N3CC(C(=O)N4c5ccccc5CC4C)C3)c3c(nc12)CCNCC3 (stereo not drawn) [Example 31.241]	0.084 µM
c1ccc(C2CCN(c3c4c(nc5ccnn35)CCNCC4)C2)cc1 (stereo not drawn) [Example 1.26]	0.16 µM
Cc1cc(OCC2CN(c3c4c(nc5ccnn35)CCNCC4)C2)ccc1F [Example 15.4]	0.025 µM
Cc1cnn2c(N3CCCCC3)c3c(nc12)CCNCC3 [Example 27.1]	0.037 µM
O=C(NCC1CCCC1)C1CN(c2c3c(nc4ccnn24)CCNCC3)C1 [Example 37.103]	0.068 µM

SMILES	EC50
O=C(C1CN(c2c3c(nc4ccnn24)CCNCC3)C1)N(Cc1ccccc1)Cc1ccc(F)cc1 [Example 31.197]	0.122 µM
CC(C)=CCN1CCC(NC(=O)C2CN(c3c4c(nc5ccnn35)CCNCC4)C2)CC1 [Example 43, 1-(6,7,8,9-Tetrahydro-5H-1,4,7,10a-tetraaza-cyclohept[f]inden-10-yl)-azetidine-3-carboxylic acid [1-(3-methyl-but-2-enyl)-piperidin-4-yl]-amide]	0.008 µM
CN(Cc1cccc(C(F)(F)F)c1)C(=O)C1CN(c2c3c(nc4ccnn24)CCNCC3)C1 [Example 31.149]	0.045 µM
O=C(C1CN(c2c3c(nc4ccnn24)CCNCC3)C1)N1CCC(O)(c2cc(F)cc(F)c2)CC1 [Example 31.195]	0.007 µM
c1ccc2cc(OC3CN(c4c5c(nc6ccnn46)CCNCC5)C3)ccc2c1 [Example 35.46]	0.495 µM
O=C(C1CN(c2c3c(nc4ccnn24)CCNCC3)C1)N1CCC(c2ccc(F)cc2)CC1 [Example 31.110]	0.03 µM
CC(C)CNC(=O)C1CN(c2c3c(nc4ccnn24)CCNCC3)C1 [Example 37.78]	0.082 µM
O=C(C1CN(c2c3c(nc4ccnn24)CCNCC3)C1)N1CC=CCC1 [Example 31.178]	0.109 µM
CCC#CCNC(=O)C1CN(c2c3c(nc4ccnn24)CCNCC3)C1 [Example 37.52]	0.061 µM
C#CC(C)(C)NC(=O)C1CN(c2c3c(nc4ccnn24)CCNCC3)C1 [Example 37.91]	0.301 µM
CC1CN(C(=O)C2CN(c3c4c(nc5c(Br)cnn35)CCNCC4)C2)CC(C)O1 (stereo not drawn) [Example 31.140]	0.065 µM
OC[C@H]1CCN1c1c2c(nc3ccnn13)CCNCC2 [Example 8.2]	0.105 µM
CC1(N)CCN(C(=O)C2CN(c3c4c(nc5ccnn35)CCNCC4)C2)CC1 [Example 37.18]	0.002 µM
O=C(C1CN(c2c3c(nc4ccnn24)CCNCC3)C1)N1CCN(c2ccccc2F)CC1 [Example 37.40]	0.012 µM
CN(Cc1ccc(OC(F)F)cc1)C(=O)C1CN(c2c3c(nc4ccnn24)CCNCC3)C1 [Example 31.161]	0.015 µM
COC[C@@H]1CCN1c1c2c(nc3ccnn13)CCNCC2 [Example 8, (S)-10-(2-Methoxymethyl-azetidin-1-yl)-6,7,8,9-tetrahydro-5H-1,4,7,10a-tetraaza-cyclohepta[f]indene]	0.272 µM
CC1(C)CCN(C(=O)C2CN(c3c4c(nc5ccnn35)CCNCC4)C2)C1 [Example 31.53]	0.008 µM
COc1ccc(OC2CN(c3c4c(nc5ccnn35)CCNCC4)C2)cc1OC [Example 35.49]	0.137 µM
CC1(C)CCCN(C(=O)C2CN(c3c4c(nc5ccnn35)CCNCC4)C2)C1 [Example 31.30]	0.338 µM

SMILES	EC50
O=C(CC1CN(c2c3c(nc4ccnn24)CCNCC3)C1)N1CCc2ccccc21 [Example 33.1]	0.019 µM
C[C@H](NC(=O)C1CN(c2c3c(nc4ccnn24)CCNCC3)C1)C1CCCCC1 [Example 31.189]	0.315 µM
CC(C)COC1CN(c2c3c(nc4ccnn24)CCNCC3)C1 [Example 20.1]	0.359 µM
Cn1c(C2CN(c3c4c(nc5ccnn35)CCNCC4)C2)nc2cc(F)ccc21 [Example 34.38]	0.29 µM
O=C(C1CN(c2c3c(nc4ccnn24)CCNCC3)C1)N1CC[C@@H](F)C1 [Example 31.205]	0.116 µM
CN1CCc2nc3ccnn3c(N3CC(C(=O)N4CCC(C(F)(F)F)C4)C3)c2CC1 (stereo not drawn) [Example 36.27]	0.089 µM
CN(Cc1cccc(Br)c1)C(=O)C1CN(c2c3c(nc4ccnn24)CCNCC3)C1 [Example 31.79]	0.02 µM
CN(Cc1ccc(Cl)cc1)C(=O)C1CN(c2c3c(nc4ccnn24)CCNCC3)C1 [Example 31.40]	0.04 µM
O=C(C1CN(c2c3c(nc4ccnn24)CCNCC3)C1)N1CCC2(CCCC2)CC1 [Example 31.41]	0.058 µM
CC1CCN(C(=O)C2CN(c3c4c(nc5ccnn35)CCN(C)CC4)C2)C1 (stereo not drawn) [Example 36.42]	0.741 µM
CC1C=CC(C)N1C(=O)C1CN(c2c3c(nc4ccnn24)CCNCC3)C1 (stereo not drawn) [Example 31.192]	0.359 µM
CC1CNCCc2c1nc1ccnn1c2N1CCC1 (stereo not drawn) [Example 3.1]	0.003 µM
Cn1c(C2CN(c3c4c(nc5ccnn35)CCNCC4)C2)nc2cc(Cl)ccc21 [Example 34.3]	0.418 µM
O=C(C1CN(c2c3c(nc4ccnn24)CCNCC3)C1)N1CCCC2(CCCc3ccccc32)C1 (stereo not drawn) [Example 31.172]	0.765 µM
CC(C)N1CCN(C(=O)C2CN(c3c4c(nc5ccnn35)CCN(C)CC4)C2)CC1 [Example 36.6]	0.067 µM
O=C(NC1CCOC1)C1CN(c2c3c(nc4ccnn24)CCNCC3)C1 (stereo not drawn) [Example 37.67]	0.067 µM
CN(CC1CC1)C(=O)C1CN(c2c3c(nc4ccnn24)CCNCC3)C1 [Example 31.97]	0.156 µM
c1ccc(O[C@H]2CCN(c3c4c(nc5ccnn35)CCNCC4)C2)cc1 [Example 1.46]	0.582 µM
O=C(NC1CCC1)C1CN(c2c3c(nc4ccnn24)CCNCC3)C1 [Example 37.92]	0.161 µM
